Results on three compounds are retold here after patent publication EP4670717A1, “PYRROLIDINE-FUSED MYRTANOL DERIVATIVES AS INHIBITORS AND/OR DEGRADERS OF IDO1 UND USE THEREOF” (Max-Planck-Gesellschaft zur Förderung der Wissenschaften …, priority 2024, dated 2025).

The target in assay [1] is T1, recombinant human IDO1 (rhIDO1) (Homo sapiens, UniProt P14902).
T1 construct: Full-length rhIDO protein (1 µM) in 50 mM potassium phosphate buffer; GST (cleaved yes); made in house; host or cells: E. coli
Kind of assay: IDO1 enzymatic assay with recombinant protein, Kyn detection with p-DMAB. In kind it is biochemical. The conditions noted are these: pre-incubated with compounds at 37°C for 40 min; for inhibition at 59 µM: in vitro inhibition at 59 uM. From the text:
Reduction of the kynurenine level in the cell-based model employed for initial SAR exploration can be due to inhibition of enzymatic activity, degradation of IDO1, or both (Table B-2). In order to differentiate between these different activities, we explored the modes of action of selected compounds in an in vitro assay employing recombinant human IDO1 (rhIDO1) monitoring enzymatic activity only, and we characterized the degradation efficiency by means of Western blotting, determining maximum degradation levels at 0.1µM (Dmax) and half maximum degradation concentration (DC50) (Table B-2). Table B-2 in vitro inhibition and degradation of IDO1 by selected compounds. […] Data are mean values ± SD (n = 4, except for compounds 1, 11, and 19 (n=2)). […] Data are mean values of n biological replicates. Dmax corresponds to maximum levels of IDO1 degradation at 0.1 µM.
Full-length rhIDO protein (1 µM) in 50 mM potassium phosphate buffer (50 mM KH2PO4 and 50 mM K2HPO4, pH 6.5) was incubated with the respective compounds for 40 min at 37 °C prior to the addition of 10 mM ascorbic acid, 10 µM methylene blue, 2 mM Trp and 100 µg/mL catalase (Sigma-Aldrich, C100). Samples were incubated for 60 min followed by the addition of trichloroacetic acid to a final concentration of 7 % and further incubation for 30 min at 37 °C. Kyn levels were detected by the addition of an equal volume of 2 % (w/v) p-DMAB in acetic acid and absorbance was measured at 492 nm and 650 nm as a background control. Values are presented relative to the DMSO control. Dose-response curves and IC50 values were generated and fitted with GraphPad Prism 6.0 (GraphPad software, USA) using four-parameter variable slope non-linear regression curve fit.

The target of assay [2] is T2, IDO1 (Homo sapiens, UniProt P14902).
T2 construct: BxPC3 cells were seeded in phenol red-free RPMI 1640 medium; endogenous in cells; host or cells: BxPC3 cells stimulated with IFN-γ (50 ng/mL)
Kind of assay: IDO1 degradation in BxPC3 cells, IDO1 protein levels by immunoblotting.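 For all read-outs here: IDO1 bands on Western blots detected with fluorescent dye-labelled secondary antibodies and quantified by band intensity, values are means of n biological replicates.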 Format: cell-based. The conditions noted are these: for Dmax at 0.1 µM: BXPC-3, BxPC3 cells. Background: In western blotting, separated proteins are transferred to a membrane and probed.
Protocol: To analyze IDO1 levels, IFN-γ-stimulated BxPC3 cells (50 ng/mL IFN-γ), U2OS cells (5 ng/mL IFN-γ), HEK^rhIDO1 (HEK293T cells electroporated with rhIDO1), SKOV3 and BT549 cells were treated with compounds for the indicated times (6 h to 24 h) followed by cell lysis (150 mM sodium chloride in 50 mM Tris (pH 8.0) and 1% NP-40 Alternative, protease and phosphatase inhibitors). Protein concentrations were determined (DC protein assay, Bio-Rad) followed by addition of 1 × SDS loading buffer and protein separation by a 10% SDS-PAGE. Separated protein samples were transferred to a polyvinylidene difluoride (PVDF) membrane using a wet-tank blotting system (Bio-Rad). IDO1 as well as vinculin as a loading were detected using the primary antibodies anti-IDO1 (ab211017, abcam or 14-9750-80, Thermo Fisher), anti-vinculin (V9131, Thermo Fisher) and anti-β-actin (ab8227, abcam) in 5 % milk in PBS-buffered saline with 0.05 % (v/v) Tween-20 (PBS-T). Primary antibodies were incubated at 4°C overnight and detected with IRDye-conjugated secondary antibodies (LI-COR Biosciences). IDO1 protein level in BT549 and SKOV3 cells was detected with HRP conjugated secondary antibody and SuperSignal™ West Dura Extended Duration Substrat (Thermo Fisher Scientific). Washing steps were performed with PBS-T. Protein bands were visualized by ChemiDoc™ MP (Bio-Rad) using a fluorescent readout. Band intensities were quantified using Image Lab software.
In order to differentiate between these different activities, we explored the modes of action of selected compounds in an in vitro assay employing recombinant human IDO1 (rhIDO1) monitoring enzymatic activity only, and we characterized the degradation efficiency by means of Western blotting, determining maximum degradation levels at 0.1µM (Dmax) and half maximum degradation concentration (DC50) (Table B-2). […] Data are mean values of n biological replicates. Dmax corresponds to maximum levels of IDO1 degradation at 0.1 µM.

In assay [3] the target is T3, apo-IDO1 (Homo sapiens, UniProt P14902).
T3 construct: For the ubiquitination assays, IDO1 (residues 5-C) was cloned into a pRSF Duet based vector; His-TEV (N); made in house; host or cells: IDO1: host not restated ('purified as described above', which points to E. coli); KLHDC3-EloB/C: Hi5 insect cells
Kind of assay: Pulse-chase ubiquitination assay of apo-IDO1 by CRL2^KLHDC3. In kind it is biochemical. The conditions noted are these: apo-IDO1 incubated with compounds (30 µM) for 90 min at 37°C; Fig. 3j.

For assay [4], the target named is T2, IDO1. Kind of assay: Kyn assay in BxPC-3 cells (Kyn levels after IFN-γ and Trp).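 Note: kyn levels expressed relative to DMSO-treated control cells.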 In kind it is cell-based.
Setting [5] is: 50 ng/ml IFN-γ 24 h, washout, compound (100 nM) 24 h, maximum IDO1 degradation at 0.1 µM.

Like-named read-outs stand apart in the source and are kept apart here.

T1 sequence (P14902 whole entry): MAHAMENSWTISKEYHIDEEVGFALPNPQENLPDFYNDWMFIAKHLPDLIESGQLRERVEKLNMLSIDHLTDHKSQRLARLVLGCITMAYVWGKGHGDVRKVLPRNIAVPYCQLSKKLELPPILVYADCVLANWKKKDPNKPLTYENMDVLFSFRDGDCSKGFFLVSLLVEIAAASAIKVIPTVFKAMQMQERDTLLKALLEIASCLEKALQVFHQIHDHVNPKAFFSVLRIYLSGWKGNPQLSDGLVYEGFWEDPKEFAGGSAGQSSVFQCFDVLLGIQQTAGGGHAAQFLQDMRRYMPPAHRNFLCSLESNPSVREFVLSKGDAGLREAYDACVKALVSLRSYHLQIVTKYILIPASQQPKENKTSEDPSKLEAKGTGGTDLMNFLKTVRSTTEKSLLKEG
T2 sequence (P14902 whole entry): as above
T3 sequence (P14902 5-403 limits assumed): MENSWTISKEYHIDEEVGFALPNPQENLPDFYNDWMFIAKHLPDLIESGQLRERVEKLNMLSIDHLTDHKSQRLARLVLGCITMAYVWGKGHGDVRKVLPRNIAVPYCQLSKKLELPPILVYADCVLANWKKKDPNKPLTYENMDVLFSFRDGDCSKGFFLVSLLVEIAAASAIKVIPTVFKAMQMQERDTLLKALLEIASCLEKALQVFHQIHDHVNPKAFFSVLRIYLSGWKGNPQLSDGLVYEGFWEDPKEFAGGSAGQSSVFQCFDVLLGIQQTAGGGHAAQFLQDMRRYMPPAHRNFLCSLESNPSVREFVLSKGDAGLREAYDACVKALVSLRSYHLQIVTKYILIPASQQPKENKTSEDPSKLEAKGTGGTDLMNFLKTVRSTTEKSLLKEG

The term inhibition denotes the change of the read-out against control, counted positive when it falls. A word on the Dmax: it is the greatest extent of degradation seen. Higher therefore signals deep degradation. Regarding `C#Cc1ccc(NC(=O)OC[C@]23CN(S(=O)(=O)c4ccc(C(C)(C)C)cc4C)C[C@H]2C[C@H]2C[C@@H]3C2(C)C)cc1` [compound 71, ((3aS,4R,6R,7aS)-2-((4-(tert-butyl)-2-methylphenyl)sulfonyl)-5,5-dimethylocta-hydro-3aH-4,6-methanoisoindol-3a-yl)methyl (4-ethynylphenyl)carbamate], in assay [1], the inhibition at 59 µM stood at 30 ± 5%. This compound also displayed a Dmax at 0.1 µM in assay [2] (setting [5]) of 74 ± 13%. The “IDO1 ubiquitination by CRL2^KLHDC3” value in assay [3] is “ubiquitinated”.

One may read the IC50 as the concentration at which inhibition is half-maximal. In the case of `C#Cc1ccc(NC(=O)OC[C@]23CN(S(=O)(=O)c4ccc(C(C)(C)C)cc4CC)C[C@H]2C[C@H]2C[C@@H]3C2(C)C)cc1` [compound 72, ((3aS,4R,6R,7aS)-2-((4-(tert-butyl)-2-ethylphenyl)sulfonyl)-5,5-dimethylocta-hydro-3aH-4,6-methanoisoindol-3a-yl)methyl(4-ethynylphenyl) carbamate], the concentration for half-maximal inhibition (IC50) in assay [4] (read-out: IC50 value in the Kyn assay, Kyn assay) was 11 nM; in assay [4] (read-out: Kyn assay IC50 ± SD, BxPC-3 cells incubated with IFN-γ, Trp and the compounds for 48 h), less than 200 nM. Further, the inhibition at 59 µM in assay [1] stood at 62 ± 5%. For the same compound, the “Dmax [%] (n)” value in assay [2] (BxPC3 cells, 50 ng/ml IFN-γ 24 h, washout, compound (100 nM) 24 h, maximum IDO1 degradation at 0.1 µM) turned out to be 75%. Besides, the “DC50 ± SD [nM]” value in assay [2] (half-maximal degradation concentration, BxPC3 cells, immunoblotting) is on record as “low nanomolar range”.

For the compound `C#Cc1ccc(NC(=O)OC[C@]23CN(S(=O)(=O)c4ccc(C(C)(C)C(=O)O)cc4)C[C@H]2C[C@H]2C[C@@H]3C2(C)C)cc1` [compound 74, 2-(4-(((3aS,4R,6R,7aS)-3a-((((4-ethynylphenyl)carbamoyl)oxy)methyl)-5,5-dimethyloctahydro-2H-4,6-methanoisoindol-2-yl)sulfonyl)phenyl)-2-methylpropanoic acid], the IC50 in assay [4] (BxPC-3 cells incubated with IFN-γ, Trp and the compounds for 48 h, read-out: Kyn assay IC50 ± SD) was less than 200 nM; in assay [1] (determined if inhibition at 59 µM was higher than 50%, read-out: rhIDO1 enzymatic activity IC50 ± SD), 310 ± 60 nM. For the same compound, in assay [4] (result in words), the “activity in the cell-based kynurenine assay” value is recorded as “low nanomolar range”. The inhibition at 59 µM in assay [1] turned out to be 78 ± 3%. The Dmax at 0.1 µM in assay [2] (setting [5]) is 54 ± 8%.
